# From ChEMBL document CHEMBL2163248, “Classification of inhibitors of hepatic organic anion transporting polypeptides (OATPs): influence of protein expression on drug-drug interactions” (J Med Chem, 2012)
# *1 amine or outer side, *2 acyl side, *3 side chain or, on linkers, in order; H or OH if unused. Where a SMILES comes first, the peptide text is derived from it. Bridges are numbered along the chain shown (N, C = ends). [ ]: non-standard residue; d: D form. Trp(2-yl) = O=C([C@H](Cc1c([*:3])[nH]c2ccccc12)N[*:1])[*:2]; Leu(4R-OH,5-OH) = C[C@](O)(CO)C[C@H](N)C(=O)O; cisHyp = O=C(O)[C@@H]1C[C@H](O)CN1
# Assays:
# [1] = molecular target: T1, Solute carrier organic anion transporter family member 2B1 (Homo sapiens, UniProt O94956); assay: Inhibition of human liver OATP2B1 expressed in HEK293 Flp-In cells assessed as reduction in [3H]E3S uptake at 20 uM incubated for 5 mins by scintillation counting; details: hek293, 5 min
# T1 sequence (O94956 whole entry): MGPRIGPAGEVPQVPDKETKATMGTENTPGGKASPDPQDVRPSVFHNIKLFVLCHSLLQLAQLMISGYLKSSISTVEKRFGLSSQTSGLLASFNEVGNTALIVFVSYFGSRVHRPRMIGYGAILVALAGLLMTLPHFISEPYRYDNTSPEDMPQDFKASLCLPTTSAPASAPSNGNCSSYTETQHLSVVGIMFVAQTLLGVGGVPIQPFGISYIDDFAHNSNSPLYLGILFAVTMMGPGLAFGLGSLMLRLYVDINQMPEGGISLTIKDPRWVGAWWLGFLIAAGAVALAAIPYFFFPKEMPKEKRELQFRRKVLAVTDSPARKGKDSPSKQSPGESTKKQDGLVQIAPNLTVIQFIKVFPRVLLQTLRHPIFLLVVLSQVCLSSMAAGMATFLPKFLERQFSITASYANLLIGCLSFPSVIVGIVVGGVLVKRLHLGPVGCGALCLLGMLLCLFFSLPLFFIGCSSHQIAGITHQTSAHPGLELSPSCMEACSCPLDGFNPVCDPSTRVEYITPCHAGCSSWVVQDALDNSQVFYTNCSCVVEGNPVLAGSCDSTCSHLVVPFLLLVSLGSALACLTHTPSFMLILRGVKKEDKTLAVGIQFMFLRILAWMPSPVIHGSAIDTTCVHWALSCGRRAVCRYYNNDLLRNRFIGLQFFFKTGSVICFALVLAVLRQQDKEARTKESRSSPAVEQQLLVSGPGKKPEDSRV
# [2] = molecular target: T2, Solute carrier organic anion transporter family member 1B1 (Homo sapiens, UniProt Q9Y6L6); assay: Inhibition of human liver OATP1B1 expressed in HEK293 Flp-In cells assessed as reduction in E17-betaG uptake at 20 uM by scintillation counting; details: hek293, 20 µM
# T2 sequence (Q9Y6L6 whole entry): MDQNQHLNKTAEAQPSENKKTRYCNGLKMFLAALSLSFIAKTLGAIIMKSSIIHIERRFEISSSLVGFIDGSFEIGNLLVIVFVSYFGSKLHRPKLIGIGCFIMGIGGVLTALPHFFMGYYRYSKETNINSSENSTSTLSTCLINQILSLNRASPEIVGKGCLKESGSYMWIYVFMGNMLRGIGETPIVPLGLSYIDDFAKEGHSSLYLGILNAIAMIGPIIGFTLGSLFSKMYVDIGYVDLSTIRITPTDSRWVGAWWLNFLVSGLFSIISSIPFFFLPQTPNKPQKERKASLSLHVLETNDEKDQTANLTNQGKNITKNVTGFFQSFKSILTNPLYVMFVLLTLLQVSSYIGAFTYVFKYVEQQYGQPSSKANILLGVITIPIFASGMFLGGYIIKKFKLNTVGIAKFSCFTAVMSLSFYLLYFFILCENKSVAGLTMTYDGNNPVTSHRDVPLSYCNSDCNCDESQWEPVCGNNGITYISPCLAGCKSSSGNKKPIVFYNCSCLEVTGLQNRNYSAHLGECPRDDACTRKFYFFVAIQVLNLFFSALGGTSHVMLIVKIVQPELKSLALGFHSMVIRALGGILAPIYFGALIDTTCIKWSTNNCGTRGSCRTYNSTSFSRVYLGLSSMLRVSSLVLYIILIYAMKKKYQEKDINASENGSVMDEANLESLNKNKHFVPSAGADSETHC
# [3] = molecular target: T3, Solute carrier organic anion transporter family member 1B3 (Homo sapiens, UniProt Q9NPD5); assay: Inhibition of human liver OATP1B3 expressed in HEK293 Flp-In cells assessed as reduction in [3H]E17-betaG uptake at 20 uM incubated for 5 mins by scintillation counting; details: hek293, 5 min
# T3 sequence (Q9NPD5 whole entry): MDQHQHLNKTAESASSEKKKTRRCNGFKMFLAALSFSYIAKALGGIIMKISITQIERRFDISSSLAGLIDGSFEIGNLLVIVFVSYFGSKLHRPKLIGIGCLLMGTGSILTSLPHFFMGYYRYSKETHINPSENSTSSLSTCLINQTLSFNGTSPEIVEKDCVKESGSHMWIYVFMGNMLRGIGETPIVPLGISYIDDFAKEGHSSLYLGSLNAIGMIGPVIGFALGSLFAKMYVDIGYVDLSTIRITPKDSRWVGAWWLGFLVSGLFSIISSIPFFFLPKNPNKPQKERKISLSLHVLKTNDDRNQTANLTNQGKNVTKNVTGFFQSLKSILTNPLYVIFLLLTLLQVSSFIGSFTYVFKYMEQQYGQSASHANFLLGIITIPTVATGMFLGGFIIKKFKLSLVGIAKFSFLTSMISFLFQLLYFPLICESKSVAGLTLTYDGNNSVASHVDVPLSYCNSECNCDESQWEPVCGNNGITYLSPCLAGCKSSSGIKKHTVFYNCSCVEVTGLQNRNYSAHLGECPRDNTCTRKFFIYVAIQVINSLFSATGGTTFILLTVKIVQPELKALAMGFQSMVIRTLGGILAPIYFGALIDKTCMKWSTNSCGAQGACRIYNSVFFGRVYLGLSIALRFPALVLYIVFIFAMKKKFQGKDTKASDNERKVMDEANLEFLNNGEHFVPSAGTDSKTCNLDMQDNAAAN
Compound,INH [1] [%],INH [2] [%],INH [3] [%]
COc1ccc(CCN2CCC(Nc3nc4ccccc4n3Cc3ccc(F)cc3)CC2)cc1 [ASTEMIZOLE],58.9,22.3,24.4
CC(C)C(=O)Nc1ccc([N+](=O)[O-])c(C(F)(F)F)c1 [FLUTAMIDE],65.8,6.8,9
NYSTATIN,23.4,69.3,74.9
C[C@H](CS)C(=O)N1CCC[C@H]1C(=O)O [CAPTOPRIL],39.1,18.6,4
"C[C@@H]1NC(=O)[C@H](C[C@@](C)(O)CO)NC(=O)[C@@H]2Cc3c([nH]c4ccccc34)SC[C@H](NC(=O)[C@@H]([C@H](C)O)NC1=O)C(=O)N1C[C@@H](O)C[C@H]1C(=O)N[C@@H](C)C(=O)N2 [PHALLOIDIN] (cyclo(A[dT]C[cisHyp]A[Trp(2-yl)][Leu(4R-OH,5-OH)]); thioether 3-6)",24.1,26.1,36.2
O=c1c(-c2ccc(O)cc2)coc2cc(O)ccc12 [DAIDZEIN],32,35,0.7
CCOC(=O)[C@H](CCc1ccccc1)N[C@@H](C)C(=O)N1CCC[C@H]1C(=O)O,19.7,-7.5,4.1
COc1cc2c(c(OC)c1OC)-c1ccc(OC)c(=O)cc1[C@@H](NC(C)=O)CC2 [COLCHICINE],24.4,45.2,-3.9
O=C(O)C[C@H](O)C[C@H](O)/C=C/c1c(C2CC2)nc2ccccc2c1-c1ccc(F)cc1 [PITAVASTATIN],63.7,97.4,94.3
CNCCC(Oc1ccc(C(F)(F)F)cc1)c1ccccc1 (centres undefined) [FLUOXETINE],22.6,21.8,14.3
Cn1c(=O)c2[nH]cnc2n(C)c1=O.O [THEOPHYLLINE],-25.5,0.8,2.5
CO[C@@H]1[C@@H](OC(N)=O)[C@@H](O)[C@H](Oc2ccc3c(O)c(NC(=O)c4ccc(O)c(CC=C(C)C)c4)c(=O)oc3c2C)OC1(C)C [NOVOBIOCIN],85.6,58.1,84.2
COc1ccc2c3c([nH]c2c1)[C@H](CC(C)C)N1C(=O)[C@H](CCC(=O)OC(C)(C)C)NC(=O)[C@@H]1C3,78.8,59.3,24.2
CC(=O)CC(c1ccccc1)c1c(O)c2ccccc2oc1=O (centres undefined) [WARFARIN],31.6,27.8,-3.2
CN1C(C(=O)Nc2ccccn2)=C(O)c2ccccc2S1(=O)=O [PIROXICAM],68.3,16.2,23.5
CC[C@H](C)C(=O)O[C@H]1C[C@@H](C)C=C2C=C[C@H](C)[C@H](CC[C@@H]3C[C@@H](O)CC(=O)O3)[C@H]21 [LOVASTATIN],-17.9,66.5,21.3
CO[C@H]1/C=C/O[C@@]2(C)Oc3c(C)c(O)c4c(O)c(c(/C=N/N5CCN(C)CC5)c(O)c4c3C2=O)NC(=O)/C(C)=C\C=C\[C@H](C)[C@H](O)[C@@H](C)[C@@H](O)[C@@H](C)[C@H](OC(C)=O)[C@@H]1C [RIFAMPIN],21.2,88.3,101.7

Compound,INH [1] [%],INH [2] [%],INH [3] [%]
C=C[C@H]1C[N+]2(C)CC[C@H]1C[C@@H]2[C@@H](O)c1ccnc2ccc(OC)cc12,-10.3,-6.1,21
CCOc1ccc(NC(C)=O)cc1 [PHENACETIN],-0.1,34.2,-0.9
O=C1Nc2ccc(Cl)cc2[C@@](C#CC2CC2)(C(F)(F)F)O1 [EFAVIRENZ],43.2,40.9,18.2
C[C@H](CCC(=O)NCCS(=O)(=O)O)[C@H]1CC[C@H]2[C@@H]3[C@H](O)C[C@@H]4C[C@H](O)CC[C@]4(C)[C@H]3CC[C@]12C [TAUROCHENODEOXYCHOLATE],47.2,89.5,82.4
COc1cc2nc(N3CCN(C(=O)C4COc5ccccc5O4)CC3)nc(N)c2cc1OC (centres undefined) [DOXAZOSIN],45.8,28.8,-17.3
Cc1cccc(C)c1NC(=O)CC12CCCN1CCC2 [PILSICAINIDE],10.8,11.2,-16.8
COc1ccc2c(c1)c(CC(=O)O)c(C)n2C(=O)c1ccc(Cl)cc1 [INDOMETHACIN],-82.4,88.6,48.6
O=c1c(-c2ccc(O)cc2)coc2cc(O)cc(O)c12 [GENISTEIN],67.9,84.9,-5
CC1(C)[C@@H](O[C@H]2O[C@H](C(=O)O)[C@@H](O)[C@H](O)[C@H]2O[C@@H]2O[C@H](C(=O)O)[C@@H](O)[C@H](O)[C@H]2O)CC[C@]2(C)[C@H]3C(=O)C=C4[C@@H]5C[C@@](C)(C(=O)O)CC[C@]5(C)CC[C@@]4(C)[C@]3(C)CC[C@@H]12 [GLYCYRRHIZIN],28.7,65.8,90.9
O=c1c(O)c(-c2ccc(O)cc2O)oc2cc(O)cc(O)c12 [MORIN],71.3,85.2,78.5
COc1cc2c(cc1OC)CN(CCc1ccc(NC(=O)c3cccc4c(=O)c5cccc(OC)c5[nH]c34)cc1)CC2,67.2,94.4,37.4
[H]/N=C(/N)N/C(=N/[H])NCCc1ccccc1 [PHENFORMIN],16.7,34.5,-2.3
CCc1nn(CCCN2CCN(c3cccc(Cl)c3)CC2)c(=O)n1CCOc1ccccc1 [NEFAZODONE],61.5,12,61.4
CC(C)c1nc(N(C)S(C)(=O)=O)nc(-c2ccc(F)cc2)c1/C=C/[C@@H](O)C[C@@H](O)CC(=O)O [ROSUVASTATIN],51.2,71.4,55.4
Cc1c(OCC(F)(F)F)ccnc1C[S+]([O-])c1nc2ccccc2[nH]1 (centres undefined) [LANSOPRAZOLE],-75.7,31.4,23.3
CN(C)CCCN1c2ccccc2CCc2ccccc21 [IMIPRAMINE],16.9,26.9,-2.4
